Data on eleven compounds can be found in ChEMBL document CHEMBL3991601, “The target landscape of clinical kinase drugs” (Science, 2017).

Test [1] concerns the target T1, UMP-CMP kinase (Homo sapiens, UniProt P30085).
T1 sequence (P30085 whole entry): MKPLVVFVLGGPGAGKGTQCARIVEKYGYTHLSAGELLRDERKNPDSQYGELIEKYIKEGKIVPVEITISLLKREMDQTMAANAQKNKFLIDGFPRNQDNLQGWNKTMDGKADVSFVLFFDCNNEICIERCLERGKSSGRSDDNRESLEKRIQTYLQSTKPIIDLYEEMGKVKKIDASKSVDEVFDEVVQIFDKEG

Test [2] has as its target Membrane-associated progesterone receptor component 1 (Homo sapiens, UniProt O00264).
For test [3], the target named is T2, Isoleucine--tRNA ligase, mitochondrial (Homo sapiens, UniProt Q9NSE4).
T2 sequence (Q9NSE4 whole entry): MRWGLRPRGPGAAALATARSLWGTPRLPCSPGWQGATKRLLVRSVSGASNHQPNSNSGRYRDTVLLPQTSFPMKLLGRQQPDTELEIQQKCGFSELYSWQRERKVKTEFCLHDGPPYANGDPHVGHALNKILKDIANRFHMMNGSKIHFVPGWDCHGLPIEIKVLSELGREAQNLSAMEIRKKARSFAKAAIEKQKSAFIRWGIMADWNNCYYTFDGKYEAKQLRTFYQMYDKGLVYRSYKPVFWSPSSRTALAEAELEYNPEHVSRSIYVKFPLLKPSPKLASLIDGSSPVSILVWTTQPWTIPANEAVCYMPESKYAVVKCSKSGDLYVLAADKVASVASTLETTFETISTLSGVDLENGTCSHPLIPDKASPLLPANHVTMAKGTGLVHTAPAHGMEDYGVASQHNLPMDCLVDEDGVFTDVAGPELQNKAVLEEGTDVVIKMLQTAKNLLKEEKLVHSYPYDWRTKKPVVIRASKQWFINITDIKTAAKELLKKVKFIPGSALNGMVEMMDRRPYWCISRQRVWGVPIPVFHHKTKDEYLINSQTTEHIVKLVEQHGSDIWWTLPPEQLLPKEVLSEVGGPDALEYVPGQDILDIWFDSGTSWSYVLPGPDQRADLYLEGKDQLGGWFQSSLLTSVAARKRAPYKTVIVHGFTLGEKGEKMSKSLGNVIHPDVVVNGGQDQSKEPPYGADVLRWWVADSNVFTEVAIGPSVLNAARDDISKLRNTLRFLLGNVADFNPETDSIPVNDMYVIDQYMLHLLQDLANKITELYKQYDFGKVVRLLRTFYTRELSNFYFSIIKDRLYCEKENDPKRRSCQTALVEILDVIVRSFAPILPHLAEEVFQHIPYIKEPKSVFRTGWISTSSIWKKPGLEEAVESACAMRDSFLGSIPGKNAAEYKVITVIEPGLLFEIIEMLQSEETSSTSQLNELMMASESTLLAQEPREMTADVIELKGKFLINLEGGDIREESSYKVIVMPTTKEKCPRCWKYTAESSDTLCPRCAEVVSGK

Test [4] has as its target Dual specificity testis-specific protein kinase 1 (Homo sapiens, UniProt Q15569).
The target in test [5] is Epidermal growth factor receptor (Homo sapiens, UniProt P00533).
Chain of Epidermal growth factor receptor (P00533 whole entry): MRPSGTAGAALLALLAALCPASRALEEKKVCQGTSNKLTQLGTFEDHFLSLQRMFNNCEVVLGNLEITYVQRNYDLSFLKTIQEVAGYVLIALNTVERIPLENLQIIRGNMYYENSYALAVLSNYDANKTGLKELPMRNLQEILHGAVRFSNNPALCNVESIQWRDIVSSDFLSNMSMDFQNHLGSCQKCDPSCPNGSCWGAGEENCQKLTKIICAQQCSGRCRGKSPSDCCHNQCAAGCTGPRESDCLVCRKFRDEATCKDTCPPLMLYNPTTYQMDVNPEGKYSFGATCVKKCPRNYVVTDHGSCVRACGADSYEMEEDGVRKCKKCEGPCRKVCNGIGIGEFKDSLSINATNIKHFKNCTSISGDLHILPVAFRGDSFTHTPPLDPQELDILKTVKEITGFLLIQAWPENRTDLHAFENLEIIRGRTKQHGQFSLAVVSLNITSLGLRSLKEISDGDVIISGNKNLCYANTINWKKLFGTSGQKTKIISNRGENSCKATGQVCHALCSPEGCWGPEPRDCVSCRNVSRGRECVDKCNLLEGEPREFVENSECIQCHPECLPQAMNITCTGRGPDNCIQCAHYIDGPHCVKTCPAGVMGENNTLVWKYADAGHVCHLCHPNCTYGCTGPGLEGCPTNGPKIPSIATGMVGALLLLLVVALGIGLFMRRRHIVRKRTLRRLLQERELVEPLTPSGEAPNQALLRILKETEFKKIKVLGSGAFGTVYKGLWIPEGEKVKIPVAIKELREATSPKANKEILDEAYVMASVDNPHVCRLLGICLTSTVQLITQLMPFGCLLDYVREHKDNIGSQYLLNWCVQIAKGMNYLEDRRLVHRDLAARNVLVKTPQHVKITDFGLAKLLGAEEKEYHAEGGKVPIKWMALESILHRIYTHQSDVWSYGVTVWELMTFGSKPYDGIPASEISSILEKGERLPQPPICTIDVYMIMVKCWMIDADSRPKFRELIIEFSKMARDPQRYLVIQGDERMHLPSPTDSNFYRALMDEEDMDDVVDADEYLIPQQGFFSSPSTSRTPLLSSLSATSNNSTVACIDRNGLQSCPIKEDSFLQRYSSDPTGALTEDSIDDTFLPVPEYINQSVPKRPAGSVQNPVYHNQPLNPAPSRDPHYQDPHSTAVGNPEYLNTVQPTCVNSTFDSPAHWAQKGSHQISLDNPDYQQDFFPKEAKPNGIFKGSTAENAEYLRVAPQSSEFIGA
Test [6] has as its target Serine/threonine-protein kinase ATR (Homo sapiens, UniProt Q13535).
Test [7] addresses DNA topoisomerase 2-alpha (Homo sapiens, UniProt P11388).
The target in test [8] is Phosphatidylethanolamine-binding protein 1 (Homo sapiens, UniProt P30086).
The target in test [9] is Cell division cycle 7-related protein kinase (Homo sapiens, UniProt O00311).
Chain of Cell division cycle 7-related protein kinase (O00311 whole entry): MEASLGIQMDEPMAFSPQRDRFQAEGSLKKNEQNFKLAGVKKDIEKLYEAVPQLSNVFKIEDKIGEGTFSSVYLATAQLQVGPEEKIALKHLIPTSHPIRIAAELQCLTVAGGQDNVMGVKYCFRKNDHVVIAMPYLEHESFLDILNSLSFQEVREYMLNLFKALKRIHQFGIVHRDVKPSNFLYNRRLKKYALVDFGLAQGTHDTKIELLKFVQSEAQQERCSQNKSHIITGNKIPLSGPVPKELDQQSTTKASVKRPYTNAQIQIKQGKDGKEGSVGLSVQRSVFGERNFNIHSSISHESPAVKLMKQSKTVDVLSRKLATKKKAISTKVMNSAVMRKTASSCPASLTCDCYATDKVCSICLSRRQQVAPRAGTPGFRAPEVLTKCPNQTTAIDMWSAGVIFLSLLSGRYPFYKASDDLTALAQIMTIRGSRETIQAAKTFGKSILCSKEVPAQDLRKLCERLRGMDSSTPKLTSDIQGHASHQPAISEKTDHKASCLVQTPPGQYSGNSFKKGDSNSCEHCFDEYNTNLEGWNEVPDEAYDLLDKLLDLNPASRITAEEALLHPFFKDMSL
Test [10] deals with T3, Cyclin-dependent kinase-like 5 (Homo sapiens, UniProt O76039).
T3 sequence (O76039 whole entry): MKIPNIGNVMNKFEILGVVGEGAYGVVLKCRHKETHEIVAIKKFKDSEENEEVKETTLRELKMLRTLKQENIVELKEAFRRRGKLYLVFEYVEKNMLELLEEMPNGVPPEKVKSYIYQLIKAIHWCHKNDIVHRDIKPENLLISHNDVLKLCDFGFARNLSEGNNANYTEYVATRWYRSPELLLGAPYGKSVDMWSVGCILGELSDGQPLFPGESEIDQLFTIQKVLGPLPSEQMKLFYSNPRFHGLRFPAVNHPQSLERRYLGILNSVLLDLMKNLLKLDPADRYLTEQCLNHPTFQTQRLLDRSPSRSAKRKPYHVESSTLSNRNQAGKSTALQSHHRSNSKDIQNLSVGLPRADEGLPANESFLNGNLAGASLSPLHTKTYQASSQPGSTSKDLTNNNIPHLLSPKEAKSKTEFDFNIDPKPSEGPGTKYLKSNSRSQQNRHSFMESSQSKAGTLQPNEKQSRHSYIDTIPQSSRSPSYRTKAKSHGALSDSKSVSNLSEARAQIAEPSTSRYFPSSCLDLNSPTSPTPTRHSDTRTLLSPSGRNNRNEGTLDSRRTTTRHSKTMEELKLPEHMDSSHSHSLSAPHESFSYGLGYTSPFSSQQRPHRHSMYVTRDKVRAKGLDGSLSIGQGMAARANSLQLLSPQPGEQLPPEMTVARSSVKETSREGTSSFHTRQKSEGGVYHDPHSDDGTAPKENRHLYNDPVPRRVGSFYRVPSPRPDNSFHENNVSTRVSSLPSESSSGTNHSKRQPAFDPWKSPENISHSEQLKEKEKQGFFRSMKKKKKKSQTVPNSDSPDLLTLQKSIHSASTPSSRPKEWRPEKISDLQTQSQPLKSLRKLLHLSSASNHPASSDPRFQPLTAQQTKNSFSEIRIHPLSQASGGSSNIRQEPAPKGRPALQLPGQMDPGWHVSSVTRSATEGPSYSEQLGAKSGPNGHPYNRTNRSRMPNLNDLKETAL

Test [11] concerns the target Mitogen-activated protein kinase 14 (Homo sapiens, UniProt Q16539).
The target of test [12] is Dual specificity protein kinase CLK4 (Homo sapiens, UniProt Q9HAZ1).
Chain of Dual specificity protein kinase CLK4 (Q9HAZ1 whole entry): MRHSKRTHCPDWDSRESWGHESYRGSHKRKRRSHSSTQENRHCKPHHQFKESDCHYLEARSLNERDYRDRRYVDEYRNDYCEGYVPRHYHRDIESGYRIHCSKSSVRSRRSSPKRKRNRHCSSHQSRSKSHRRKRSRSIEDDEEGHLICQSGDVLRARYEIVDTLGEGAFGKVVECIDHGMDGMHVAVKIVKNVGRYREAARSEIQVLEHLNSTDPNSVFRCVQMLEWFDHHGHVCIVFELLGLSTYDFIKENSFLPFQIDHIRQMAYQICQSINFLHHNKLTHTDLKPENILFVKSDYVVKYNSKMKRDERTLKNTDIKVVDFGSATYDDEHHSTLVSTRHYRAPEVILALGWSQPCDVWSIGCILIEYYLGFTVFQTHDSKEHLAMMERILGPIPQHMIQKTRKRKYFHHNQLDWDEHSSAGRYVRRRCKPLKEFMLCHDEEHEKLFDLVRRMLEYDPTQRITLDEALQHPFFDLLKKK
For test [13], the target named is Proto-oncogene tyrosine-protein kinase receptor Ret (Homo sapiens, UniProt P07949).
The target in test [14] is Glycogen synthase kinase-3 beta (Homo sapiens, UniProt P49841).
Chain of Glycogen synthase kinase-3 beta (P49841 whole entry): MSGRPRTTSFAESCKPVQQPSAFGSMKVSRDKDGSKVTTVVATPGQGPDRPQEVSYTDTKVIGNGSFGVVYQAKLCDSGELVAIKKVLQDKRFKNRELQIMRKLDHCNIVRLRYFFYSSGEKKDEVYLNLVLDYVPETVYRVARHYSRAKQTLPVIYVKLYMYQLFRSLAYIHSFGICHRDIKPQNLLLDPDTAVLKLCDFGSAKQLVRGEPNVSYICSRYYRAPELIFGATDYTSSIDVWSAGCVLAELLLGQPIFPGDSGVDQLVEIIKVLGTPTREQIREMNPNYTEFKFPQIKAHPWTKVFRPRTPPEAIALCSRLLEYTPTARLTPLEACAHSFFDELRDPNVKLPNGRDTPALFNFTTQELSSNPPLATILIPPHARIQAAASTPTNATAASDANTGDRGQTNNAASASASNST
Test [15] deals with Dual specificity protein kinase CLK2 (Homo sapiens, UniProt P49760).
Chain of Dual specificity protein kinase CLK2 (P49760 whole entry): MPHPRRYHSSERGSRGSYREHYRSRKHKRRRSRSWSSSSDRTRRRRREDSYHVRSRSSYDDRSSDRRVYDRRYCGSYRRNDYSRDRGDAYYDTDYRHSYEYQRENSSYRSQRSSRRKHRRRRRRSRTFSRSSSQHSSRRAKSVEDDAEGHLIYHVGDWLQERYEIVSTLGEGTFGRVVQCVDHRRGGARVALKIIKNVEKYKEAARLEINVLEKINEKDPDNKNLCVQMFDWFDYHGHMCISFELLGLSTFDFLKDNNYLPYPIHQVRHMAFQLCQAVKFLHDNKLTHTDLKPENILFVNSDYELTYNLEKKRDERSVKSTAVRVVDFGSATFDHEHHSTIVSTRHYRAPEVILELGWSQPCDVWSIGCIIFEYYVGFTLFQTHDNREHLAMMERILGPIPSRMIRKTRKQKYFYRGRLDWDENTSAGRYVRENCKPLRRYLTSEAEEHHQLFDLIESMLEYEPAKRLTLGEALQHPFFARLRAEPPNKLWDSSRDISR
The target of test [16] is Serine/threonine-protein kinase Nek7 (Homo sapiens, UniProt Q8TDX7).

The source made the active and inactive calls.
Further: in the data inactive means no Kd found up to 30 µM.

Chain of Mitogen-activated protein kinase 14 (Q16539 whole entry): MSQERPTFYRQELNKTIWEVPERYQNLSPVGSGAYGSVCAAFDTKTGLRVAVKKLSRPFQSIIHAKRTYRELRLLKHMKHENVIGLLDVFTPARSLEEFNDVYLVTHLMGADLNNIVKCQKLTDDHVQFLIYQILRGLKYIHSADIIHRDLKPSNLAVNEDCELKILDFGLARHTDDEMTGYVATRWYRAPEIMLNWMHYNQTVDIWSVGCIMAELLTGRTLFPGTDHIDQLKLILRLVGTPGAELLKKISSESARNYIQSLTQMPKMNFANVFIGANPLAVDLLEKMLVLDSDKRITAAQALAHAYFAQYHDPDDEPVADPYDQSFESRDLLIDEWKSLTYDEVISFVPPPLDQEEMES
Chain of DNA topoisomerase 2-alpha (P11388 whole entry): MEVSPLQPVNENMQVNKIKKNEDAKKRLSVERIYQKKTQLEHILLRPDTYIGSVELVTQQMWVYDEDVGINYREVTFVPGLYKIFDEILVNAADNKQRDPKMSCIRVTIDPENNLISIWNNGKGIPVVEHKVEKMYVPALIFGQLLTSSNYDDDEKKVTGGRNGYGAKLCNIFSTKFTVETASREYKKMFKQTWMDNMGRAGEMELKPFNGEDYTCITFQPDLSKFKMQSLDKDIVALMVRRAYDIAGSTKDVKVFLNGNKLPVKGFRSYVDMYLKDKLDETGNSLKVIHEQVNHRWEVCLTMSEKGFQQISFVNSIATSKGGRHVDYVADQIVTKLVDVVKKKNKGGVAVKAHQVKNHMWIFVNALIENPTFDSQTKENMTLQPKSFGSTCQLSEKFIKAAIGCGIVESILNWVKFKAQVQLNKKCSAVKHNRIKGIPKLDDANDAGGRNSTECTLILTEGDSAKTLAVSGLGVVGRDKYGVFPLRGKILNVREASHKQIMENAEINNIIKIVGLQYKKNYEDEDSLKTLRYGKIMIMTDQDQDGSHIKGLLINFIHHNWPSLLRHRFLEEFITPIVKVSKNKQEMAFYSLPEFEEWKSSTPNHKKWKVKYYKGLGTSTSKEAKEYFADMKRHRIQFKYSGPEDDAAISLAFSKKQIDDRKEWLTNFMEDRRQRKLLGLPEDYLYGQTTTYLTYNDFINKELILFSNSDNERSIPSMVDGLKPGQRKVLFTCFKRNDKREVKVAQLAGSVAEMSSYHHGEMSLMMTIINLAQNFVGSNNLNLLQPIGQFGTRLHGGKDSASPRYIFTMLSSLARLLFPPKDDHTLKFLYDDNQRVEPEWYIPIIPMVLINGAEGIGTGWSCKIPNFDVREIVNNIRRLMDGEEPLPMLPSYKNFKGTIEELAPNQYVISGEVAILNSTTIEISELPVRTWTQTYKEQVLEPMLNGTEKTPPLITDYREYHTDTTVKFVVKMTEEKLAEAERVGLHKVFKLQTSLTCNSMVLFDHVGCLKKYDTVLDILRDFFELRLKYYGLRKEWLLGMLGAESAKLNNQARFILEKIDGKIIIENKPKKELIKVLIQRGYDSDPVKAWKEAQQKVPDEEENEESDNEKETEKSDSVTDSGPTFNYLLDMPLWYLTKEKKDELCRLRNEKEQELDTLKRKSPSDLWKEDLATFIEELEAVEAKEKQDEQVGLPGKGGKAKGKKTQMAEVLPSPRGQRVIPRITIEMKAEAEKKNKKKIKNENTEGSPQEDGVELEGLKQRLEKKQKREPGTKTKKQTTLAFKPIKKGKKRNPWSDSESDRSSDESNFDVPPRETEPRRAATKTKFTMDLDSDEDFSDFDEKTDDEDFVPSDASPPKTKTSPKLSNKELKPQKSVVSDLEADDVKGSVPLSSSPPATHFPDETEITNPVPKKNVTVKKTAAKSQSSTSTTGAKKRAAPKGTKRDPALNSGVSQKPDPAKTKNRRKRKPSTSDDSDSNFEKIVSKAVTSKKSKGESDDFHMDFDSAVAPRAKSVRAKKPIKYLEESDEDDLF

On to `C=CCn1c(=O)c2cnc(Nc3ccc(N4CCN(C)CC4)cc3)nc2n1-c1cccc(C(C)(C)O)n1` [ADAVOSERTIB], for which the Kd in test [1], in test [2], in test [3], in test [4], in test [5] and in [6] was > 30 µM (inactive) each time. Also, the Kd in test [7], in test [8], in test [9] and in test [10] was > 30 µM (inactive) in each case.
Consider `CC1(C)CNc2cc(NC(=O)c3cccnc3NCc3ccncc3)ccc21` [MOTESANIB], for which the Kd in test [1], in [2], in [8] and in [9] was > 30 µM (inactive) each time.
Consider `O=C(Nc1ccc(OC(F)(F)F)cc1)c1sccc1NCc1ccnc2ccccc12` [OSI-930], for which the Kd in test [11], in [2], in test [3], in [4], in test [5] and in test [6] was > 30 µM (inactive) in each case. The Kd (commonly the free concentration of one partner at which half of the binding sites on the other are occupied at equilibrium, for simple one-to-one binding) in test [7] was > 30 µM (inactive); in test [12], > 30 µM (inactive); in [13], 0.388 µM (active); in [14], > 30 µM (inactive); in [9], > 30 µM (inactive); in test [15], > 30 µM (inactive). The Kd in [10] was > 30 µM (inactive).
In the case of `Cn1cnc2c(F)c(Nc3ccc(Br)cc3Cl)c(C(=O)NOCCO)cc21` [SELUMETINIB], the Kd in [1], in test [2], in [3], in test [7], in [8] and in [9] was > 30 µM (inactive) throughout.
For `C=CC(=O)Nc1cccc(Nc2nc(Nc3ccc(N4CCN(C(C)=O)CC4)cc3OC)ncc2C(F)(F)F)c1` [ROCILETINIB], the Kd in test [11], in test [3], in [4], in test [6], in test [7] and in [12] was > 30 µM (inactive) in each case. Further, the Kd in [8], in test [13], in [14] and in test [15] was > 30 µM (inactive) in each case.
`C=CCN(/C=C1/C(=O)O[C@H](COC)[C@@]2(C)C1=C(O)C(=O)C1=C2[C@H](OC(C)=O)C[C@]2(C)C(=O)CC[C@@H]12)CC=C` [SONOLISIB]: the Kd in [11], in test [4], in [5], in [13], in [14] and in test [16] was > 30 µM (inactive) in each case. The Kd in [10] was > 30 µM (inactive).
Take `O=C(NC[C@H](O)CO)c1ccncc1Nc1ccc(I)cc1F` [PIMASERTIB]: the Kd in test [11] was > 30 µM (inactive); in [1] it was > 30 µM (inactive); in [2], > 30 µM (inactive); in test [3], 0.011 µM; in [4] it was > 30 µM (inactive); in test [5] it was > 30 µM (inactive). The Kd in test [7], in [12], in test [8], in test [13], in test [14] and in test [9] was > 30 µM (inactive) each time. Moreover, the Kd in test [15] and in [10] was > 30 µM (inactive) each time.
Regarding `CN1CCN(c2nc(C3=C(c4c[nH]c5ccccc45)C(=O)NC3=O)c3ccccc3n2)CC1` [SOTRASTAURIN], the Kd in test [11], in test [3], in test [4], in test [6], in test [7] and in [12] was > 30 µM (inactive) in each case. Further, the Kd in [13] was > 30 µM (inactive); in test [14] it was 0.709 µM (active); in test [9] it was > 30 µM (inactive); in [15], 0.121 µM; in [10], > 30 µM (inactive).
Regarding `COc1cc2c(Oc3ccc4[nH]c(C)cc4c3F)ncnc2cc1OCCCN1CCCC1` [CEDIRANIB], the Kd in [1], in test [3], in test [6], in [7], in test [8] and in [9] was > 30 µM (inactive) in each case.
As to `CN(c1ncccc1CNc1nc(Nc2ccc3c(c2)CC(=O)N3)ncc1C(F)(F)F)S(C)(=O)=O` [PF-00562271], the Kd in [1], in test [2], in test [3], in test [4], in [12] and in test [8] was > 30 µM (inactive) in each case. In [10], the Kd was > 30 µM (inactive).
For `NC[C@@](O)(c1ccc(Cl)cc1)c1ccc(-c2cn[nH]c2)cc1` [AT-13148], the Kd in test [11], in test [1], in test [2], in test [3], in test [5] and in [7] was > 30 µM (inactive) in each case. Also, the Kd in test [8], in [13], in test [14] and in [15] was > 30 µM (inactive) in each case.
